From patent US20250295790A1, “LECTIN-TARGETING CONJUGATES” (Helmholtz-Zentrum für Infektionsforschung GmbH, priority 2021, published 2025)
Where “and” joins values, the source holds several entries; their conditions need not be identical. Equal values may be shown once. Entries after “also recorded” stand apart in the source; their conditions may differ.

Columns and labels:
[1] = tested on: A549 cells; experiment: Cell accumulation assay; assay type: cell-based, human; conditions: for intracellular drug levels: 15 min after incubation
Description: A549 cells were seed into 96-well-plates as described for the cytotoxicity assay. Cells were cultivated at 37° C. and 5% CO2 until they reached 95% confluency. Cells were treated with 2, 36 or 37 at a final concentration of 10 µg/ml or left untreated. Each condition was assayed in technical dupli-cates with two biological replicates. Cells were treated for 15 min, 30 min and 60 min. After incubation for the respective time point, cells were washed twice with pre-warmed PBS and were then lysed in MeOH and scratched from the surface. Supernatants from medium, wash fluids as well as the cell extracts were subjected to mass spectrometric analysis. For wash fluid and medium samples, calibration and QC samples were prepared using PBS as matrix and spiking the respective compounds into the matrix. For cell extract samples, calibration and QC samples were prepared using MeOH as matrix. For calibration and QC samples compounds were dispensed using a Mantis(R) Formulatrix. […] Supernatants were transferred to a Greiner V-bottom plate, sealed and subjected for HPLC-MS/MS analysis.
(§1) Cell samples as well as plasma stability, plasma protein binding and metabolic stability samples were analysed using an Agilent 1290 Infinity II coupled to an AB Sciex 6500plus mass spec-trometer. LC conditions were as follows: column: Agilent Zorbax Eclipse Plus C18, 50×2.1 mm, 1.8 m; temperature: 30° C.; injection volume: 5 l per sample; flow rate: 700 l/min. Solvents: A: water+0.1% formic acid; solvent B: 95% acetonitrile/5% H2O+0.1% formic acid. Gradient for 2, 36 and 37: 99% A from 0 min until 1 min; 99-0% A from 1.0 until 2.2 min, 0% A until 3.2 min. Gradient for naproxene: 99% A from 0 min until 1 min; 99-0% A from 1.0 until 5.5 min, 0% A until 6.0 min. Gradient for […] and […]: 99% A from 0 min until 1.0 min, 99-0% A from 1.0 until 3.5 min, 0% A until 3.7 min. Mass transitions for controls and compounds are depicted in table 5.

[2] = Prodrug activation assay in human blood plasma spiked with P. aeruginosa PA14 culture supernatant; assay type: in vitro ADME, Pseudomonas aeruginosa PA14; conditions: 50% human blood plasma spiked with 10% P. aeruginosa culture supernatant, within 3 h
Description: In the prodrug activation assay, the bacterial strain Pseudomonas aeruginosa PA14 wt (DSM 19882) was used. The strain was obtained from the German Collection of Microorganisms and Cell Cultures (DSMZ).
P. aeruginosa PA14 was streaked on LB-agar plates (1% agar) from glycerol stocks and incubated at 37° C. overnight. 2-5 colonies were picked and dispersed in 10 mL LB (10 g/L trypton, 10 g/L NaCl, 5 g/L yeast extracts). This dispersion was incubated overnight at 37° C., 180 rpm under high humidity. The culture was centrifuged (4000 ref, room temperature, 10 min) and the supernatant was filtered (0.22 m pore size). […]
A 1 mM solution of the studied compound was prepared in PBS (150 mM NaCl, 2.6 mM KCl, 1.4 mM KH2PO4, 10 mM Na2HPO4, pH 7.4) with 20% DMSO. 50 μL of this solution was diluted in 950 μL matrix or human plasma (spiked with 10% LB) on ice. After brief vortex, 100 μL were immediately treated with 100 μL ice-cold MeCN (spiked with […] diphenhydramine as internal standard). The rest of the solution was incubated at 37° C. and 500 rpm in an eppendorf thermomixer. At various time points (30, 60, 120, 180 min), 100 L sample were taken and treated as described above. […] The AUC of the parent drug and its cleavage products and the internal standard was quantified using Compass QuantAnalysis quantification software. The relative AUC was calculated by AUC (compound)/AUC(ISTD). Procaine was used as a positive control as it readily degrades in human plasma.

[3] = Microsomal stability assay, human S9 liver microsomes; assay type: in vitro ADME; conditions: for metabolic stability t1/2 HLM: human S9 liver fractions; for CLmic S9human: microsomal clearance, calculated from t1/2
Description: (§2) S9 liver microsomes (mouse and human, Thermo Fisher) were thawed slowly on ice. 20 mg/ml of microsomes, 2 μl of a 100 μM solution of every compound and 183 μl of 100 mM phosphate buffer were incubated 5 min at 37° C. in a water bath. Reactions were initiated using 10 μl of 20 mM NADPH (Roth). Samples were incubated in three replicates at 37° C. under gentle agitation at 150 rpm.
(§3) At 0, 5, 15, 30, and 60 min, reactions were terminated by the addition of 180 μl acetonitrile using a Mantis Formulatrix® dispenser. Samples were vortexed for 5 min using an Eppendorf MixMate® vortex mixer and centrifuged at 2270 ref for 20 min at 4° C. The supernatants were transferred to 96-well Greiner V-bottom plates, sealed and analysed according to the section HPLC-MS/MS analysis. Peak areas of the respective time point of the compounds were normalized to the peak area at time point 0 min. Then half-life was calculated using linear regression (Microsoft Excel®). Clint [μl/min/mg protein] was calculated using the following formula: […]
as §1

[4] = Microsomal stability assay, mouse S9 liver microsomes; assay type: in vitro ADME; conditions: for CLmic S9mouse: microsomal clearance, calculated from t1/2; for metabolic stability t1/2 MLM: mouse S9 liver fractions
Description: as §2, §3, §1

[5] = Plasma protein binding assay (RED), human plasma; assay type: in vitro ADME; conditions: human blood plasma
Description: Plasma protein binding was assessed using the rapid equilibrium device (RED) system from ThermoFisher. […] Dialysis buffer and plasma samples were added to the respective chambers according the manufacturer's protocol. The RED plate was sealed with a tape and incubated at 37° C. for 2 hours at 800 rpm on an Eppendorf MixMate® vortex-mixer. Then samples were withdrawn from the respective chambers. To 25 μl of each dialysis sample, 25 μl of plasma and to 25 μl of plasma sample, 25 l of dialysis buffer was added. […] Samples were incubated for 30 min on ice. Then samples were centrifuged at 4° C. at 2270 ref for 10 min. Supernatants were transferred to Greiner V-bottom 96-well plates and sealed with a tape. Then samples were subjected to HPLC-MS/MS analysis as described in the section ‘HPLC-MS/MS analysis’. The percentage of bound compound was calculated as follows: […]
Cell samples as well as plasma stability, plasma protein binding and metabolic stability samples were analysed using an Agilent 1290 Infinity II coupled to an AB Sciex 6500plus mass spec-trometer. LC conditions were as follows: column: Agilent Zorbax Eclipse Plus C18, 50×2.1 mm, 1.8 m; temperature: 30° C.; injection volume: 5 l per sample; flow rate: 700 l/min. Solvents: A: water+0.1% formic acid; solvent B: 95% acetonitrile/5% H2O+0.1% formic acid. […]

Row | SMILES | intracellular cleavage to compound 2 [1] | intracellular concentration ([1]; 10 μg/ml, after 30 and 60 min) [µg/mL] | intracellular drug levels [1] | release of antibiotic cargo [2] | metabolic stability t1/2 HLM [3] [h] | CLmic S9human [3] [μL/min/mg protein] | CLmic S9mouse [4] [μL/min/mg protein] | metabolic stability t1/2 MLM [4] [h] | plasma protein binding human [5]
1 | CC(C)C[C@H](NC(=O)CNC(=O)[C@H](C)NC(=O)c1ccc(S[C@@H]2O[C@H](CO)[C@H](O)[C@H](O)[C@H]2O)cc1)C(=O)N[C@@H](C)C(=O)N[C@H]1CCN(c2cc3c(cc2F)c(=O)c(C(=O)O)cn3C2CC2)C1 [Compound 36] | not the case | 0.013 to 0.016 | very low intracellular drug levels | release their antibiotic cargo; also recorded: released a significant amount of their antibiotic cargo; also recorded: efficiently released their antibiotic cargo | 1.55 | 15 | 14 | 1.67 | 97% and 97.2 ± 4.8%
2 | CC(C)CC(NC(=O)CNC(=O)C(C)NC(=O)c1ccc(S(=O)(=O)NCC2OC(C)C(O)C(O)C2O)cc1)C(=O)NC(C)C(=O)NC1CCN(c2cc3c(cc2F)c(=O)c(C(=O)O)cn3C2CC2)C1 (centres unmarked) [Compound 37] | not the case |  | very low intracellular drug levels | release their antibiotic cargo; also recorded: released a significant amount of their antibiotic cargo; also recorded: efficiently released their antibiotic cargo | 2.97 | 7.8 | 6.4 | 3.6 | 51% and 51.1 ± 13.3%
